Results on 14 molecules are retold here after patent publication US20240368191A1, “HETEROCYCLIC COMPOUNDS AND USES THEREOF” (Kumquat Biosciences Inc., priority 2021, published 2024).

SMILES strings stand for the structures.

T1 sequence (P01116 1-169 isoform P01116-2 G12D): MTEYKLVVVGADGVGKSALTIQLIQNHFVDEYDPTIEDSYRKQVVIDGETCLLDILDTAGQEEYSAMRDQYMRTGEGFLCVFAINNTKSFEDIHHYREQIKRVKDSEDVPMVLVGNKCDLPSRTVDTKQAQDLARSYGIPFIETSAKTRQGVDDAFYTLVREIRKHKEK

The assay concerns the target T1, KRAS G12D 1-169 (His-tagged, GDP-loaded) (Homo sapiens, UniProt P01116, G12D).
T1 construct: His -tagged GDP-loaded G12D 1-169; made in house; host or cells: E. coli, e.g. BL21 (DE3)
Description: Covalent modification of KRAS protein by intact-protein LC-MS. The format is binding. Particulars: comparable or same conditions as K-Ras G12S. How it is done: Test compounds are prepared as 10 mM stock solutions in DMSO (Fisher cat #BP231-100). KRAS protein (His -tagged GDP-loaded wildtype 1-169, His -tagged GDP-loaded G12S 1-169 or His -tagged GDP-loaded G12D 1-169) is diluted to ˜2 μM in appropriate buffer (e.g., a Hepes buffer at physiological conditions). For testing KRAS modification, compounds are diluted to 50× final test concentration in DMSO in 96-well storage plates. 2 μl of the diluted 50× compounds are added to appropriate wells in the PCR plate (Fisher cat #AB-0800). ˜49 μl of the stock protein solution is added to each well of the 96-well PCR plate. Reactions are mixed carefully. The plate is sealed well with aluminum plate seal, and stored in drawer at room temperature for 24 hrs. 5 μl of 2% formic acid (Fisher cat #A117-50) in MilliQ H2O is then added to each well followed by mixing with a pipette. The plate is then resealed with aluminum seal and stored until mass spectrometry analysis.
The extent of covalent modification of KRAS proteins was determined by liquid chromatography electrospray mass spectrometry analysis of the intact proteins on a Thermo Q-Exactive Plus mass spectrometer. 20 μl of sample was injected onto a bioZen 3.6 μm Intact C4 column (Phenomenex cat #00B-4767-AN) placed in a column oven set to 40° C. and separated using a suitable LC gradient from ˜20% to ˜60% solvent B. Solvent A was 0.1% formic acid and solvent B was 0.1% formic acid in acetonitrile. HESI source settings were set to 40, 5 and 1 for the sheath, auxiliary and sweep gas flow, respectively. The spray voltage was 4 kV, and the capillary temperature was 320° C. S-lens RF level was 50 and auxiliary gas heater temperature was set to 200° C. The mass spectrometry was acquired using a scan range from 650 to 1750 m/z using positive polarity at a mass resolution of 70,000, AGC target of 1e6 ions and maximum injection time of 250 ms. The recorded protein mass spectrum was deconvoluted from the raw data file using Protein Deconvolution v4.0 (Thermo). The protein mass and adduct masses were exported with their peak intensities. The peak intensities for the unmodified and modified protein were used to calculate the percent covalent modification of the KRAS protein based on the following equation: % KRAS protein modification=((KRAS−compound)/(KRAS)+(KRAS−Compound))*100.
Turning to `COCCN1CCC(Oc2nc(N3CCCCC4(CN(C(=O)n5cncn5)C4)C3)c3cc(Cl)c(-c4ccc(F)c5sc(N)c(C#N)c45)c(F)c3n2)CC1` [Compound A119, 4-(4-(2-(1H-1,2,4-triazole-1-carbonyl)-2,6-diazaspiro[3.6]-decan-6-yl)-6-chloro-8-fluoro-2-((1-(2-methoxyethyl)piperi-din-4-yl)oxy)quinazolin-7-yl)-2-amino-7-fluorobenzo[b]-thiophene-3-carbonitrile], the “covalent labeling of K-Ras G12D” value is reported as “essentially no detectable labeling”.

As to `Nc1nc2c(-c3c(Cl)cc4c(N5CCCC6(CN(C(=O)n7cncn7)CCO6)C5)nc(OC[C@@]56CCCN5C[C@H](F)C6)nc4c3F)ccc(F)c2s1` (stereo partly drawn) [Compound A125, (8-(7-(2-amino-7-fluorobenzo-[d]thiazol-4-yl)-6-chloro-8-fluoro-2-(((2R,7aS)-2-fluoro-tetrahydro-1H-pyrrolizin-7a(5H)-yl)methoxy)quinazolin-4-yl)-1-oxa-4,8-diazaspiro[5.5]-undecan-4-yl)(1H-1,2,4-triazol-1-yl)methanone], the “covalent labeling of K-Ras G12D” value is on record as “essentially no detectable labeling”.

As to `N#Cc1c(N)sc2c(F)ccc(-c3ncc4c(N5CCCC6(CN(C(=O)n7cncn7)C6)C5)nc(OC[C@@]56CCCN5C[C@H](F)C6)nc4c3F)c12` [Compound A134, 4-(4-(2-(1H-1,2,4-triazole-1-carbonyl)-2,6-diazaspiro[3.5]-nonan-6-yl)-8-fluoro-2-(((2R,7aS)-2-fluorotetrahydro-1H-pyrrolizin-7a(5H)-yl)meth-oxy)pyrido[4,3-d]pyrimidin-7-yl)-2-amino-7-fluorobenzo[b]-thiophene-3-carbonitrile], the “covalent labeling of K-Ras G12D” value is “essentially no detectable labeling”. Then `N#Cc1c(N)sc2c(F)ccc(-c3ncc4c(N5CCOC6(CN(C(=O)n7cncn7)C6)C5)nc(OC[C@@]56CCCN5C[C@H](F)C6)nc4c3F)c12` [Compound A161, 4-(4-(2-(1H-1,2,4-triazole-1-carbonyl)-5-oxa-2,8-diaza-spiro[3.5]nonan-8-yl)-8-fluoro-2-(((2R,7aS)-2-fluorotetrahydro-1H-pyrrolizin-7a(5H)-yl)meth-oxy)pyrido[4,3-d]pyrimidin-7-yl)-2-amino-7-fluorobenzo[b]-thiophene-3-carbonitrile], with “essentially no detectable labeling”; and `N#Cc1c(N)sc2c(F)ccc(-c3c(Cl)cc4c(N5CCOC6(CN(C(=O)n7cncn7)C6)C5)nc(OC[C@@]56CCCN5C[C@H](F)C6)nc4c3F)c12` [Compound A162, 4-(4-(2-(1H-1,2,4-triazole-1-carbonyl)-5-oxa-2,8-diaza-spiro[3.5]nonan-8-yl)-6-chloro-8-fluoro-2-(((2R,7aS)-2-fluoro-tetrahydro-1H-pyrrolizin-7a(5H)-yl)methoxy)quinazolin-7-yl)-2-amino-7-fluorobenzo-[b]thiophene-3-carbonitrile], with “essentially no detectable labeling”. Take `N#Cc1c(N)sc2c(F)ccc(-c3c(Cl)cc4c(OC5CCCCN(C(=O)n6cncn6)C5)nc(OC[C@@]56CCCN5C[C@H](F)C6)nc4c3F)c12` (stereo partly drawn) [Compound A169, 4-(4-((1-(1H-1,2,4-triazole-1-carbonyl)azepan-3-yl)oxy)-6-chloro-8-fluoro-2-(((2R,7aS)-2-fluorotetrahydro-1H-pyrrolizin-7a(5H)-yl)methoxy)quinazolin-7-yl)-2-amino-7-fluorobenzo-[b]thiophene-3-carbonitrile]: the “covalent labeling of K-Ras G12D” value is “essentially no detectable labeling”.

Turning to `Cc1nc(C)n(C(=O)N2CC3(COCCN(c4nc(OC[C@@]56CCCN5C[C@H](F)C6)nc5c(F)c(-c6ccc(F)c7sc(N)c(C#N)c67)c(Cl)cc45)C3)C2)n1` [Compound A185, 2-amino-4-(6-chloro-4-(2-(3,5-dimethyl-1H-1,2,4-triazole-1-carbonyl)-6-oxa-2,9-diazaspiro-[3.6]decan-9-yl)-8-fluoro-2-(((2R,7aS)-2-fluorotetrahydro-1H-pyrrolizin-7a(5H)-yl)meth-oxy)quinazolin-7-yl)-7-fluoro-benzo[b]thiophene-3-carbonitrile], the “covalent labeling of K-Ras G12D” value is “essentially no detectable labeling”.

`N#Cc1c(N)sc2c(F)ccc(-c3c(Cl)cc4c(N5CCOC6(CN(C(=O)n7ccnn7)C6)C5)nc(OC[C@@]56CCCN5C[C@H](F)C6)nc4c3F)c12` [Compound A195, 4-(4-(2-(1H-1,2,3-triazole-1-carbonyl)-5-oxa-2,8-diazaspiro-[3.5]nonan-8-yl)-6-chloro-8-fluoro-2-(((2R,7aS)-2-fluoro-tetrahydro-1H-pyrrolizin-7a(5H)-yl)methoxy)quinazolin-7-yl)-2-amino-7-fluorobenzo-[b]thiophene-3-carbonitrile]: the “covalent labeling of K-Ras G12D” value is recorded as “essentially no detectable labeling”. The result for `Nc1nc2c(-c3c(Cl)cc4c(N5CCC56CCCN(C(=O)n5cncn5)C6)nc(OCC56CCCN5CC(F)C6)nc4c3F)ccc(F)c2s1` (centres unmarked) [Compound A197, (1-(7-(2-amino-7-fluorobenzo-[d]thiazol-4-yl)-6-chloro-8-fluoro-2-((2-fluorotetrahydro-1H-pyrrolizin-7a(5H)-yl)meth-oxy)quinazolin-4-yl)-1,6-diazaspiro[3.5]nonan-6-yl)(1H-1,2,4-triazol-1-yl)methanone] reads “essentially no detectable labeling”; that for `Nc1nc2c(-c3c(Cl)cc4c(N5CCC6(CN(C(=O)n7cncn7)CCO6)C5)nc(OC[C@@]56CCCN5C[C@H](F)C6)nc4c3F)ccc(F)c2s1` (stereo partly drawn) [Compound A202, (2-(7-(2-amino-7-fluorobenzo-[d]thiazol-4-yl)-6-chloro-8-fluoro-2-(((2R,7aS)-2-fluoro-tetrahydro-1H-pyrrolizin-7a(5H)-yl)methoxy)quinazolin-4-yl)-6-oxa-2,9-diazaspiro[4.5]-decan-9-yl)(1H-1,2,4-triazol-1-yl)methanone], “essentially no detectable labeling”. `Nc1nc2c(-c3c(Cl)cc4c(N5CCC56CCCN(C(=O)n5cncn5)CC6)nc(OC[C@@]56CCCN5C[C@H](F)C6)nc4c3F)ccc(F)c2s1` (stereo partly drawn) [Compound A209, (1-(7-(2-amino-7-fluorobenzo-[d]thiazol-4-yl)-6-chloro-8-fluoro-2-(((2R,7aS)-2-fluoro-tetrahydro-1H-pyrrolizin-7a(5H)-yl)methoxy)quinazolin-4-yl)-1,7-diazaspiro[3.6]decan-7-yl)(1H-1,2,4-triazol-1-yl)-methanone]: the “covalent labeling of K-Ras G12D” value is recorded as “essentially no detectable labeling”.

As for `Nc1nc2c(-c3c(Cl)cc4c(N5CC6(CCCN(C(=O)n7cncn7)C6)C5)nc(OC[C@@]56CCCN5C[C@H](F)C6)nc4c3F)ccc(F)c2s1` [Compound A230, (2-(7-(2-amino-7-fluorobenzo-[d]thiazol-4-yl)-6-chloro-8-fluoro-2-(((2R,7aS)-2-fluoro-tetrahydro-1H-pyrrolizin-7a(5H)-yl)methoxy)quinazolin-4-yl)-2,6-diazaspiro[3.5]nonan-6-yl)(1H-1,2,4-triazol-1-yl)-methanone], the “covalent labeling of K-Ras G12D” value is listed as “essentially no detectable labeling”. The result for `Nc1nc2c(-c3c(Cl)cc4c(N5CCOC6(CCN(C(=O)n7cncn7)CC6)C5)nc(OCC56CCCN5C[C@H](F)C6)nc4c3F)ccc(F)c2s1` (stereo partly drawn) [Compound A243, (4-(7-(2-amino-7-fluorobenzo-[d]thiazol-4-yl)-6-chloro-8-fluoro-2-(((2R)-2-fluorotetra-hydro-1H-pyrrolizin-7a(5H)-yl)methoxy)quinazolin-4-yl)-1-oxa-4,9-diazaspiro[5.5]undecan-9-yl)(1H-1,2,4-triazol-1-yl)-methanone] reads “essentially no detectable labeling”; that for `N#Cc1c(N)sc2c(F)ccc(-c3c(Cl)cc4c(OC5CCCCN(C(=O)n6cncn6)C5)nc(OC[C@@]56CCCN5C[C@H](F)C6)nc4c3F)c12` (stereo partly drawn) [Compound A258, 4-(4-((1-(1H-1,2,4-triazole-1-carbonyl)azepan-3-yl)oxy)-6-chloro-8-fluoro-2-(((2R,7aS)-2-fluorotetrahydro-1H-pyrrolizin-7a(5H)-yl)methoxy)quinazolin-7-yl)-2-amino-7-fluorobenzo-[b]thiophene-3-carbonitrile], “essentially no detectable labeling”.
